Test results as given in patent US12150927B2, “Use of cannabidiolic acid in the treatment of autism spectrum disorder and associated disorders” (GW Research Limited, priority 2016, dated 2024).
“And” between values parts separate entries of the source, which are not always exact repeats. Equal values may be shown once.

Key:
VPA-exposed offspring = test: Locomotor activity and repetitive behaviours (self-grooming) in activity cage, rat VPA model; assay type: in vivo, Sprague-Dawley rats; details: CBDA 20 mg/kg/day i.p. PND 34-56
Protocol: Pregnant Sprague-Dawley rats (Charles River, Calco, Italy), received a single intraperitoneal injection of 500 mg/kg sodium valproate on the 12.5 day after conception, and control females were injected with physiological saline at the same time. Sodium valproate (Sigma Aldrich, Milan, IT) was dissolved in saline at a concentration of 250 mg/ml.
CBDA was dissolved in ethanol, cremophor and saline (1:1:18). Symptomatic treatment with CBDA at doses of 2 and 20 mg/kg/day i.p. was performed starting from PND 34 (early adolescence) till 56 (early adulthood), both in male and female offspring of dams injected with VPA 500 mg/kg (or vehicle) on day 12.5 after conception. At PND 56, a series of behavioural tests was performed in order to assess the effect of chronic CBDA on sociability, social novelty, short-term memory, locomotion and stereotyped/repetitive behaviours.
Locomotor activity and repetitive behaviours: Locomotor activity was recorded in an activity cage for 20 minutes with the aid of Anymaze program (Ugo Basile, Italy). In this period, repetitive behaviours (self-grooming and digging) were measured by an observer blind to the treatment group.

MeCP2 KO mice [1] = test: Body weight gain, mouse model of Rett syndrome; assay type: in vivo; details: CBDA 2 and 20 mg/kg i.p. daily, PND 28-66, FIG. 5
Protocol: (§1) CBDA was administered daily at the dose of 2 or 20 mg/kg i.p. starting from PND 28 and the following signs were scored every other day: hindlimb clasping (indication of motor imbalance), tremor, gait (measure of coordination), breathing, mobility and general condition.
(§2) The CBDA was dissolved in ethanol, cremophor and saline (1:1:18). Starting from PND 28, mice received a daily intraperitoneal injection of CBDA (or vehicle) at the dose of 2 or 20 mg/kg. Animals were then scored every other day to evaluate the effect of CBDA treatment on motor symptoms (hindlimb clasping, gait, mobility) as well as neurological signs and general conditions (breathing abnormalities, tremors and general condition) present in MeCP2 knockout (KO) mice.

animal models of seizure = details: co-pending UK patent application GB1514079.1; cited from earlier work
MeCP2 KO mice [2] = test: Symptom scoring, mouse model of Rett syndrome; assay type: in vivo; details: chronic CBDA 2 and 20 mg/kg i.p., FIG. 7-9
Protocol: as §1, §2
Each of the six symptoms was scored from 0 to 2 (0 corresponds to the symptom being absent or the same as in the wild type (WT) animal; 1 when the symptom was present; 2 when the symptom was severe).
Mobility: the mouse is observed when placed on bench, then when handled gently. 0=as WT. 1=reduced movement when compared with WT: extended freezing period when first placed on bench and longer periods spent immobile. 2=no spontaneous movement when placed on the bench; mouse can move in response to a gentle prod or a food pellet placed nearby.
Gait: 0=as WT. […]

MeCP2 KO and WT mice = test: Survival, mouse model of Rett syndrome; assay type: in vivo
Protocol: as §1, §2

[3] = tested on: Fmr1 KO and WT mice (PND21); test: Susceptibility to audiogenic seizures; assay type: in vivo
Protocol: This trait was evaluated in PND21 mice after acute administration of the compounds or its vehicle, 30 min before starting the procedure. To measure audiogenic seizure sensitivity mice were placed individually into a novel environment, a glass cylinder (40 cm high, 16 cm diameter) and allowed to explore for 1 min. Next, a bell (100 dB) was rung for 30 see and seizure activity scored according to the following scale: no response, 0; wild running, 1; clonic seizure, 2; tonic seizure, 3; status epilepticus/respiratory arrest/death, 4.
On postnatal day 21 (PND21) WT and Fmr1 KO mice were injected with CBDA (20 mg/kg) or vehicle, 30 min before exposure to a bell ring (100 dB). Mice exposed to this noise for 30 see ceased from their normal exploratory behaviour and reacted with gradually to wild-running, clonic seizure, tonic seizure or death. The maximum response was annotated for each mouse as detailed in Table 2 below. A score was calculated according to the severity of the symptoms as explained in the Methods section.

Ube3am-/p+ (AS) mice = test: Clasping test, mouse model of Angelman syndrome; assay type: in vivo; details: chronic treatment (30 days) CBDA 20 mg/kg i.p., 10 weeks of age, vs AS vehicle, FIG. 12
Protocol: Heterozygous mice with maternal deficiency of Ube3A (Ube3am−/p+) and wild type (Ube3am+/p+) were purchased from The Jackson Laboratory (Jackson code: B6.129S7-Ube3a tm1Alb/J) and maintained in a C57BL/6 background.
Drugs were dissolved in 1:1:18 ethanol:cremophor:0.9% saline, for intraperitoneal (i.p.) administration. […] CBDA was administered at 20 mg/kg.
Clasping: The clasping test assesses ataxia in mice. Mice were suspended by the base of the tail and their behaviours were recorded for 30 seconds. The time for which the mice clasped their hind limbs was recorded. The time was then scored as follows: 4, 15-30 s, 3, 10-15 s, 2, 5-10 s, 1, 0-5 s and 0, 0 s

[4] = FXS (Fmr1 KO) mice PND21, n = 5, CBDA 20 mg/kg acute (30 min)
[5] = WT mice PND21, n = 6, CBDA 20 mg/kg acute (30 min)

C=C(C)[C@@H]1CCC(C)=C[C@H]1c1c(O)cc(CCCCC)c(C(=O)O)c1O [CBDA, Cannabidiolic acid]
locomotor activity (VPA-exposed offspring; VPA offspring, FIG. 2B): able to normalize this | repetitive behaviours (time spent in compulsive self-grooming) (VPA-exposed offspring; VPA-exposed offspring, FIG. 2A): significantly normalize this behaviour | body weight gain (MeCP2 KO mice [1]): did not prevent the reduction in body weight | efficacy in animal models of seizure (animal models of seizure): effective in animal models of seizure | total symptom score (tremor, breathing, hindlimb clasping, gait, general condition, mobility) (MeCP2 KO mice [2]): partially improve these symptoms and decrease the total symptom score, however these data were not significant | survival rate (MeCP2 KO and WT mice; MeCP2 KO mice, chronic CBDA 20 mg/kg i.p., PND 67 (vehicle KO 57.14%), FIG. 6): 85.14% and 85% | lethality (MeCP2 KO and WT mice; WT mice treated with CBDA (2 and 20 mg/kg i.p. daily)): No lethality | number of mice with maximum response: Clonic seizure [3, 4]: 0 | number of mice with maximum response: Death [3, 4]: 0 | number of mice with maximum response: No response [3, 4]: 2 | number of mice with maximum response: Tonic seizure [3, 4]: 1 | number of mice with maximum response: Wild running [3, 4]: 2 | seizure severity ([3]; FXS mice, CBDA 20 mg/kg, 30 min before 100 dB bell, vs vehicle): either no seizures or seizures of lower severity | number of mice with maximum response: Clonic seizure [3, 5]: 0 | number of mice with maximum response: Death [3, 5]: 0 | number of mice with maximum response: No response [3, 5]: 6 | number of mice with maximum response: Tonic seizure [3, 5]: 0 | number of mice with maximum response: Wild running [3, 5]: 0 | clasping duration (Ube3am-/p+ (AS) mice): significantly reduced clasping duration
